Data from patent publication US11465998B2, “Therapeutic compounds and methods of use thereof” (Regents of the University of Minnesota, priority 2019, dated 2022).
“Also recorded” adds a separate entry of the source.

How the values were obtained:
[1] = system: macrophage cell line derived from TRIF/TRAM knockout mice (NR-9568); assay: Cytokine/chemokine induction in TRIF/TRAM double-knockout cell line; format: cell-based; conditions: TRIF/TRAM double-knockout murine cell line
Procedure: (§1) Cytokine induction by 7e and 7f was examined in murine-derived cell lines. […] The absence of activity was not due to extensive plasma protein binding by re-examining under near-serum-free conditions.
(§2) Example 5: High-throughput screens in porcine blood: Curated compound collections were obtained from the Institute for Therapeutics Discovery & Development at the University of Minnesota. Compound transfers from source (80 nL of 10 mM stocks) to assay plates were performed using an Echo 550 acoustic liquid handler (Labcyte, Sunnyvale, Calif.). For most libraries, a target final concentration of 10 μM of compound (in a final volume of 80 μL for the assay described below) was achieved. Compound plates were hermetically sealed and stored at −80° C. until used. Fresh, heparin-anticoagulated porcine blood from healthy animals were obtained under USDA supervision from Midwest Research Swine, LLC (Glencoe, Minn.). 80 μL of hematocrit-enriched porcine blood (low-speed centrifugation, followed by resuspension in DMEM supplemented with 10% fetal bovine serum) was added to compound plates and incubated for 15 h. […] NF-κB translocation was assayed spectrophotometrically using an alkaline phosphatase-specific chromogen (present in HEK-detection medium as supplied by InvivoGen) at 620 nm using a SpectraMax M4 multimode microplate reader (Molecular Devices, Sunnyvale, Calif.). […] Example 7: Human NOD1/2-specific reporter gene assays (NF-κB induction), and TLR-2/-3/-4/-5/-7/-8/-9/STING/ISG counter-screens: The induction of NF-κB was quantified using human TLR-2/-3/-4/-5/-7/-8/-9/NOD-1/NOD-2/STING/ISG-specific, rapid-throughput, liquid handler-assisted reporter gene assays as previously described by us (Wu, W. et al. J. Med. Chem. 2010, 53, 3198-3213; Shukla, N. M. et al. J. Med. Chem. 2010, 53, 4450-4465; Agnihotri, G. et al. J. Med. Chem. 2011, 54, 1490-1510 and Ukani, R. et al. Bioorg. Med. Chem. Lett. 2012, 22, 293-295). […]

[2] = system: THP-1 NF-κB reporter cells; assay: NF-κB translocation in THP-1 NF-κB reporter cells, alone or with TLR stimuli; format: cell-based, human; conditions: for enhancement of NF-κB translocation response to TLR2 stimuli: concurrent exposure to compound and TLR2 agonist; for enhancement of NF-κB translocation response to TLR2 stimuli / enhancement of NF-κB translocation response to TLR4 stimuli / enhancement of NF-κB translocation response to TLR5 stimuli: data not shown; for enhancement of NF-κB translocation response to TLR4 stimuli: concurrent exposure to compound and TLR4 agonist; for enhancement of NF-κB translocation response to TLR5 stimuli: concurrent exposure to compound and TLR5 agonist; for enhancement of NF-κB translocation response to TLR7 stimuli: concurrent exposure to graded concentrations of compound and TLR7 agonist; for enhancement of NF-κB translocation response to TLR8 stimuli: concurrent exposure to graded concentrations of compound and TLR8 agonist
Source text: Given that Rip2 activity is proximal to several of the components that constitute the multiprotein signaling complexes involved in innate immune signaling, and Rip2 participates in signaling through some, but not all, TLRs, it was of particular interest to examine if the benzimidazole-thiophene-2-carboxamide formula I compounds could synergize with other innate immune stimuli. […] THP-1 NF-κB reporter cells were concurrently exposed to graded concentrations of either 7e or 7f, and a variety of innate immune stimuli, including TLR-2, -3, -4, -5, -7, -8, and -9 agonists. An enhancement in NF-κB translocation was observed.

[3] = system: microglial cell line derived from MAL/MyD88 double knockout Mice (NR-9904); assay: Cytokine/chemokine induction in MAL/MyD88 double-knockout cell line; format: cell-based; conditions: MAL/MyD88 double-knockout murine cell line
Procedure: as §1, §2

[4] = system: RAW264.7 murine macrophages; assay: Cytokine/chemokine induction in wild-type RAW264.7 murine macrophages (multiplexed immunoassay); format: cell-based; conditions: wild-type RAW264.7 murine macrophage cell line
Procedure: as §1, §2

Structure (SMILES)	cytokine and chemokine induction [1]	enhancement of NF-κB translocation response to TLR2 stimuli [2]	enhancement of NF-κB translocation response to TLR4 stimuli [2]	enhancement of NF-κB translocation response to TLR5 stimuli [2]	enhancement of NF-κB translocation response to TLR7 stimuli [2]	enhancement of NF-κB translocation response to TLR8 stimuli [2]	cytokine and chemokine induction [3]	induction of chemokines and proinflammatory cytokines [4]
CCCCCCc1nc2ccccc2n1-c1csc(C(N)=O)c1 [Compound 7f, 4-(2-Hexyl-1H-benzo[d]imidazol-1-yl)thiophene-2-carboxamide]	essentially identical to that of 7e	absent	absent	evident	particularly pronounced	particularly pronounced	essentially identical to that of 7e	potently immunostimulatory; also recorded: essentially identical to that of 7e
CCCCCc1nc2ccccc2n1-c1csc(C(N)=O)c1 [Compound 7e, 4-(2-Pentyl-1H-benzo[d]imidazol-1-yl)thiophene-2-carboxamide]	abrogation of responsiveness	absent	absent	evident	particularly pronounced; also recorded: enhancement of NF-κB translocation responses	particularly pronounced; also recorded: enhancement of NF-κB translocation responses; also recorded: distinctly biphasic	abrogation of responsiveness	potently immunostimulatory; also recorded: induction of chemokines and cytokines
